# Laboratory results from PMC7830757, “An Anti-Inflammatory 2,4-Cyclized-3,4-Secospongian Diterpenoid and Furanoterpene-Related Metabolites of a Marine Sponge Spongia sp. from the Red Sea” (Marine Drugs, 2021).
# Read-outs that look alike come from different tables or passages of the source.
# What was measured:
# [1] = test system: fMLF/CB-induced human neutrophils (superoxide anion generation); assay: Superoxide anion generation in fMLF/CB-induced human neutrophils; format: cell-based; settings: Neutrophil; for inhibition at 10 µM: Homo sapiens, percentage of inhibition at 10 μM, read-out: Superoxide Anion Inh %; for IC50: fMLF/CB-induced human neutrophils
# Description: (§1) Human neutrophils were isolated from the blood of healthy adult volunteers and enriched by using dextran sedimentation, Ficoll–Hypaque gradient centrifugation, and hypotonic lysis, as described previously. Then, neutrophils were incubated in Ca^2+-free HBSS buffer (pH 7.4, ice-cold).
# Neutrophils (6 × 10^5 cells/mL) incubated (with 0.6 mg/mL ferricytochrome c and 1 mM Ca^2+) in HBSS at 37 °C were treated with DMSO (as control) or tested compound for 5 min. Neutrophils were primed by 1 μg/mL cytochalasin B (CB) for 3 min before being activated by 100 nM fMLF for 10 min. The change of superoxide anion generation was spectrophotomically measured at 550 nm (U-3010, Hitachi, Tokyo, Japan). LY294002 [2-(4-morpholinyl)-8-phenyl-1(4H)-benzopyran- 4-one] was used as a positive control.
# [2] = test system: fMLF/CB-induced human neutrophils (elastase release); assay: Elastase release in fMLF/CB-induced human neutrophils; format: cell-based; settings: Neutrophil; for inhibition at 10 µM: Homo sapiens, percentage of inhibition at 10 μM, read-out: Elastase Inh %; for IC50: fMLF/CB-induced human neutrophils
# Description: as §1
# Neutrophils (6 × 10^5 cells/mL) incubated (with 100 μM MeO-Suc-Ala-Ala-Pro-Val-p- nitroanilide and 1 mM Ca^2+) in HBSS at 37 °C were treated with DMSO or the tested compound for 5 min. Neutrophils were, then, activated with fMLF (100 nM)/CB (0.5 μg/mL) for 10 min. The change of elastase release was spectrophotomically measured at 405 nm (U-3010, Hitachi, Tokyo, Japan).
# [3] = dash per footnote b, read-out: Superoxide Anion IC50 (dash class)
# [4] = dash per footnote b, read-out: Elastase IC50 (dash class)
# [5] = mean ± SEM (n ≥ 3), read-out: Superoxide Anion IC50
# [6] = mean ± SEM (n ≥ 3), read-out: Elastase IC50
SMILES,"IC50 [1, 3] [µM]","IC50 [2, 4] [µM]","IC50 [1, 5] [µM]","IC50 [2, 6] [µM]",inhibition at 10 µM ([1]; mean ± SEM (n ≥ 3)) [%],inhibition at 10 µM ([2]; mean ± SEM (n ≥ 3)) [%]
"O=c1cc(N2CCOCC2)oc2c(-c3ccccc3)cccc12 [LY294002, 2-(4-morpholinyl)-8-phenyl-1(4H)-benzopyran-4-one, reference compound]",–,–,1.88,2.58,90.3,77.6
"CC1=C(O)C(=O)CC2(C)C1CCC1(CO)c3cocc3CCC12 (centres unmarked) [Compound 6, 18-nor-3,17-dihydroxyspongia-3,13(16),14-trien-2-one]",> 10,> 10,–,–,9.44,19.2
"CC(C)CCC[C@@H](C)[C@H]1CC[C@H]2C3=CC(=O)[C@@]4(O)C[C@@H](O)CC[C@]4(C)[C@H]3CC[C@]12C [Compound 7, cholesta-7-ene-3β,5α-diol-6-one]",> 10,> 10,–,–,12.8,25.9
"CC12CCC3C(C)(C1CCc1cocc12)C(O)C1(O)C(=O)OCC31C (centres unmarked) [Compound 1, 17-dehydroxysponalactone]",–,–,3.37,4.07,91.4,90.3

# Second part, led by results:
"IC50 [1, 3] [µM]","IC50 [2, 4] [µM]","IC50 [1, 5] [µM]","IC50 [2, 6] [µM]",SMILES,inhibition at 10 µM ([1]; mean ± SEM (n ≥ 3)) [%],inhibition at 10 µM ([2]; mean ± SEM (n ≥ 3)) [%]
> 10,> 10,–,–,"C/C(=C\CCc1ccoc1)CCC(=O)O [Compound 2, (E)-7-(furan-3-yl)-4-methylhept-4-enoic acid]",3.47,14
> 10,> 10,–,–,"CC(=CCCc1ccoc1)CCC=C(C)CCC(O)C1(C)CCC(=O)O1 (stereo not drawn) [Compound 4, 16-epi-irciformonin G]",2.61,-1.07
> 10,> 10,–,–,"C/C(=C\CC(=O)NO)CCCc1ccoc1 [Compound 3, spongiafuranohydroxamic acid A]",8.85,18
–,> 10,5.31,–,"C/C(=C\CCc1ccoc1)CCC(=O)N[C@H]1CCOC1=O [Compound 5, (−)-sponalisolide B]",67.1,35.2
